Laboratory results published in patent US8410046B2, “Antibiotic peptide derived from ribosomal protein L1 of Helicobacter pylori and use thereof” (Industry-Academic Cooperation Foundation, Chosun University, priority 2008, dated 2013).
Entries after “also recorded” stand apart in the source; their conditions may differ. Read-outs that look alike come from different tables or passages of the source. Where no end group is shown, it is not given here.

Key:
Type in all cases: cell-based
[1] = system: Escherichia coli (ATCC 25922); assay: MIC, antimicrobial activity (microtitrate plate, absorbance 620 nm); conditions: Gram negative bacterium; 6 hours at 37° C.
Source text: (§1) The present inventors measured MIC, which is the minimum concentration of not divided bacterial cell, in order to compare the antimicrobial activity of the peptide prepared by the method of <experimental example 1>.
(§2) More specifically, the present inventors used Escherichia coli, Pseudomonas aeruginosa, Proteus vulgaris, Salmonella typhimurium as a Gram negative bacterium and used Staphylococcus aureus, Listeria monocytogenes, Staphylococcus epidermidis, Bacillus subtilis as a Gram positive bacterium. In addition, Escherichia coli (ATCC 25922), Listeria monocytogenes (ATCC 19115), and Staphylococcus aureus (ATCC 25923) were provided by “American Type Culture Collection” and Bacillus subtilis (KCTC 1918), […] (KCTC 3096), Pseudomonas aeruginosa (KCTC 1637) and Proteus vulgaris (KCTC 2433) were provided by “Korean Collection for Type Cultures”. After culturing each strain by up to mid-log phase in LB medium (1% Bacto tryptone, 0.5% extraction of Bacto yeast, 1% sodium chloride; Sigma, USA) and diluting it by the bacterial cell concentration of 1×10^4 cell/100 μl with 1% Bacto pepton medium (Difco, USA), they inoculated the strain to Microtitrate Plate (Nunc, USA). The present inventors added both the peptide of the present invention (experimental group 1 and 2) synthesized in the <experimental example 1> and maternal peptide(control group) into the plate after diluting separately by 1/2 times from 25 μM/well, and cultured them for 6 hours at 37° C. In addition, they measured absorbance under 620 nm of wavelength using Microtitrate Plate reader (Merck Elisa reader, Germany) and determined the MIC value of each strain, after then they described the final result in the following Table 2.

[2] = system: Listeria monocytogenes (ATCC 19115); assay: as above; conditions: Gram positive bacterium; 6 hours at 37° C.
Source text: as §1, §2

[3] = system: Proteus vulgaris (KCTC 2433); assay: as above; conditions: Gram negative bacterium; 6 hours at 37° C.
Source text: as §1, §2

[4] = system: Pseudomonas aeruginosa (KCTC 1637); assay: as above; conditions: Gram negative bacterium; 6 hours at 37° C.
Source text: as §1, §2

Salmonella typhimurium = assay: as above; conditions: Gram negative bacterium; 6 hours at 37° C.
Source text: as §1, §2

[5] = system: Staphylococcus aureus (ATCC 25923); assay: as above; conditions: Gram positive bacterium; 6 hours at 37° C.
Source text: as §1, §2

[6] = system: Staphylococcus epidermidis; assay: as above; conditions: Gram positive bacterium; 6 hours at 37° C.
Source text: as §1, §2

[7] = system: Bacillus subtilis (KCTC 1918); conditions: Gram positive bacterium; 6 hours at 37° C.
Source text: as §1, §2

human erythrocyte = assay: Erythrocyte hemolytic activity; conditions: for % Hemolysis: 8% human erythrocyte in PBS pH 7.0, 1 hour, 1% triton X-100 = 100%; for hemolytic activity (result in words): human erythrocyte, by the concentration of 200 μM
Experimental: Firstly, the present inventors diluted human erythrocyte with phosphate buffer (PBS, pH 7.0) to be a 8% concentration and then, they diluted each described peptide comprising the amino acid sequence of SEQ. ID. NO: 1 to 3 in the Table 1 continually at the 1/2 concentration starting from 200 μM and make them reacted for 1 hour at 37. After then, the present inventors measured the amount of hemoglobin included in the supernatant obtained by centrifugating it with 1,000 g and the absorbance under the 414 nm of wavelength of the supernatant. In order to investigate relative level a comparative study of cytotoxicity, they measured the absorbance of supernatant with adding 1% triton X-100 (sigma, USA) to the human erythrocyte cell. Making the cytotoxicity of 1% triton X-100 to become a 100%, the present inventors calculated hemolysis of the peptides (experimental group 1 and 2) and maternal peptides (control group) of the present invention according to the following mathematical formula.
In the mathematical formula, absorbance A means the absorbance of the peptide solution under the 414 nm of wavelength, absorbance B means the absorbance of PBS under the 414 nm of wavelength and absorbance C means the absorbance of 1% triton X-100 under the 414 nm of wavelength.

HaCaT cell line = assay: Cytotoxicity in the normal cell line (MTT)
Experimental: (§3) In order to confirm the cytotoxicity in the normal cell line, which was prepared by the <experimental example 1>, the present inventors measured the cytotoxicity using HaCaT cell line (Dr. N E. Fusenig, Heidelberg, Germany) and NIH3T3 cell line (ATCC(CRL-1658™)).
(§4) Specifically, they inject HaCaT cell line and NIH3T3 cell line, which were cultured in DMEM badge including 10% FBS (Fetal Bovine Serum), into 96-well plate with 3×10^3 each and cultured them for 24 hours, after then, they treated the peptides prepared by the <experimental example> to the HaCaT cell line and NIH3T3 cell line according to the concentration respectively and reacted them in the 5% CO2 incubator for 24 hours. After culturing, they put 20 ul of MTT (Thiazolyl Blue Tetrazolium Bromide) solution (5 mg/ml in PBS), into each well and reacted them four hours. And they removed supernatant and melted MTT crystal prepared by adding 200 ul of DMSO, and then they studied the result at 560 nm.

NIH3T3 cell line = assay: Cytotoxicity in the normal cell line (MTT)
Experimental: as §3, §4

[8] = NIH3T3 cell line, 24 hours, MTT

## FKRLKKLFKKIWNWK-NH2 [HPA3NT3, FKRLKKLFKKIWNWK-NH2, reference compound]
[1]
  MIC Escherichia coli: 4 µM
[2]
  MIC Listeria monocytogenes: 2 µM
[3]
  MIC Proteus vulgaris: 8 µM
[4]
  MIC Pseudomonas aeruginosa: 2 µM
Salmonella typhimurium
  MIC Salmonella typhimurium: 2 µM
[5]
  MIC Staphylococcus aureus: 2 µM
[6]
  MIC Staphylococcus epidermidis: 2 to 4 µM
[7]
  MIC Bacillus subtilis: 2 µM
Human erythrocyte; peptide 3.13 μM
  % Hemolysis: 0%
Human erythrocyte; peptide 6.25 μM
  % Hemolysis: 0%
Human erythrocyte; peptide 12.5 μM
  % Hemolysis: 0%
Human erythrocyte; peptide 25 μM
  % Hemolysis: 0%
Human erythrocyte; peptide 50 μM
  % Hemolysis: 7.12%
Human erythrocyte; peptide 100 μM
  % Hemolysis: 11.35%
Human erythrocyte; peptide 200 μM
  % Hemolysis: 37.23%
HaCaT cell line; HaCaT cell line, 24 hours, MTT
  cytotoxicity (result in words, FIG. 1): high cytotoxicity
NIH3T3 cell line; [8]
  cytotoxicity (result in words, FIG. 2): high cytotoxicity

## AKRLKKLAKKIWNWK-NH2 [NT3-F1AF8A, AKRLKKLAKKIWNWK-NH2]
[1]
  MIC Escherichia coli: 16 to 32 µM
[2]
  MIC Listeria monocytogenes: 2 µM
[3]
  MIC Proteus vulgaris: 4 µM
[4]
  MIC Pseudomonas aeruginosa: 2 µM
Salmonella typhimurium
  MIC Salmonella typhimurium: 2 µM
[5]
  MIC Staphylococcus aureus: 4 to 8 µM
[6]
  MIC Staphylococcus epidermidis: 16 µM
[7]
  MIC Bacillus subtilis: 4 µM
Human erythrocyte
  hemolytic activity (result in words): no hemolytic activity; also recorded: did not generate hemolytic phenomenon
Human erythrocyte; peptide 3.13 μM
  % Hemolysis: 0%
Human erythrocyte; peptide 6.25 μM
  % Hemolysis: 0%
Human erythrocyte; peptide 12.5 μM
  % Hemolysis: 0%
Human erythrocyte; peptide 25 μM
  % Hemolysis: 0%
Human erythrocyte; peptide 50 μM
  % Hemolysis: 0%
Human erythrocyte; peptide 100 μM
  % Hemolysis: 0%
Human erythrocyte; peptide 200 μM
  % Hemolysis: 0%
HaCaT cell line; HaCaT cell line, 24 hours, MTT
  cytotoxicity (result in words, FIG. 1): little cytotoxicity
NIH3T3 cell line; [8]
  cytotoxicity (result in words, FIG. 2): little cytotoxicity

## AKRLKKLAKKIWKWK-NH2 [NT3-F1AF8A-A2, AKRLKKLAKKIWKWK-NH2]
[1]
  MIC Escherichia coli: 4 µM
[2]
  MIC Listeria monocytogenes: 2 µM
[3]
  MIC Proteus vulgaris: 2 to 4 µM
[4]
  MIC Pseudomonas aeruginosa: 2 µM
Salmonella typhimurium
  MIC Salmonella typhimurium: 1 to 2 µM
[5]
  MIC Staphylococcus aureus: 4 µM
[6]
  MIC Staphylococcus epidermidis: 2 to 4 µM
[7]
  MIC Bacillus subtilis: 2 µM
Human erythrocyte
  hemolytic activity (result in words): no hemolytic activity
Human erythrocyte; peptide 3.13 μM
  % Hemolysis: 0%
Human erythrocyte; peptide 6.25 μM
  % Hemolysis: 0%
Human erythrocyte; peptide 12.5 μM
  % Hemolysis: 0%
Human erythrocyte; peptide 25 μM
  % Hemolysis: 0%
Human erythrocyte; peptide 50 μM
  % Hemolysis: 0%
Human erythrocyte; peptide 100 μM
  % Hemolysis: 0%
Human erythrocyte; peptide 200 μM
  % Hemolysis: 0%
HaCaT cell line
  cytotoxicity (result in words, FIG. 1): little cytotoxicity
NIH3T3 cell line
  cytotoxicity (result in words, FIG. 2): little cytotoxicity
